# Assay results published in patent publication US4654368A, “Tri-organotin silatrane derivatives and pesticidal compositions, fungicides or antifouling agents comprising said compounds as active ingredients” (Nitto Kasei Co., Ltd., priority 1984, dated 1987).
# Assays:
# Type in all cases: in vivo
# Plasmopara viticola = test: Test on fungicidal effect on downy mildew of grape; conditions: sprayed on grape seedlings
# From the text: Sandy soil was filled in plastic pots, and seeds of grape (variety: Neomuscat) were sown, and grown for about 1 month in a greenhouse to obtain young seedlings of grape in the 2-3 leaf stage. A water dilution of an emulsifiable concentrate of a wettable powder of each of the test compounds was sprayed onto the leaves of these seedlings so that the chemical adhered fully to the surfaces of the leaves. After drying the chemical in air, a suspension of conidospores of a […] pathogen of grape (Plasmopara viticola) was inoculated in the seedling by spraying. The seedlings were placed for 2 days in a high humidity condition at 23° C., and subsequently cultivated for 14 days in a greenhouse kept at 20° to 25° C. to cause onset of the disease. Thereafter, the state of the disease was observed.
# The degree of disease was calculated by the following method. The examined leaves were classified by indices of 0, 0.5, 1, 2 and 4 according to the degrees of appearance of lesions, and the degree of disease was calculated from the following equation.
# 0: No fungus colony or lesion was noted on the surface of the leaves.
# The control index was calculated from the following equation. [formula]
# Culex pipiens = test: Test on insecticidal effect on Culex pipiens; conditions: 3.5 ppm, wettable powder of Formulation Example 5 (contains Fenitrothion); for Death rate: final-instar larvae, next day, 1440 min; for Emergence inhibition rate: when all larvae in non-treated area emerged
# Protocol: A wettable powder of each of compounds Nos. 2, 7, 8, 11, 13, 14, 17, 18 and 31 obtained in accordance with Formulation Example 5 was diluted with water to 3.5 ppm. One hundred milliliters of the dilution was put in each of 180 ml. polyethylene cups and 20 final-instar larvae of Culex pipiens were released into the cup. On the next day, the larvae were examined for mortality.
# Thereafter, feeds were added to the test areas, and when all larvae n the non-treated area emerged, the emergence inhibition rate was examined.
# The death rate and the emergence inhibition rate were rated by three grades as follows: […]
# [1] = test system: marine animals and plants; test: Test on antifouling effects on marine animals and plants in the sea; conditions: Owase Bay; for Fouled state, period of submerging 4 months / Fouled state, period of submerging 8 months / Fouled state, period of submerging 12 months: antifouling paint on vinyl chloride plate
# Protocol: A ship bottom antifouling paint was prepared by adding 24 g of Rosin WW, 12 g of a vinyl copolymer, 4 g of tricresyl phosphate, 10 g of bentonite, 20 g of baryta, 20 g of red iron oxide, 35 g of xylene and 35 g of methyl isobutyl ketone to 40 g of each of compounds Nos. 2, 8, 14, 17, 20 and 32 of the invention and vigorously stirring the mixture at room temperature for 1 hour. The paint was coated on both surfaces of a rigid vinyl chloride resin plate, 17×9×0.3 cm in size, to a dry thickness of about 200 microns. The coated plate was submerged in the sea in Owase Bay, Mie Prefecture, Japan for 12 months, and its fouled state was regularly observed.
# The symbols in the table show the following.
# [2] = test system: tobacco cutworms (Prodenia litura Fabrficius); test: Test on insecticidal efficacy on tobacco cutworms; conditions: 500 ppm in artificial feed, 4th-instar larvae, 6 days; wettable powder of Formulation Example 5 (contains Fenitrothion)
# Protocol: A wettable powder of each of compounds Nos. 3, 7, 8, 9, 11, 12, 13, 14, 17, 18 and 31 of the invention obtained in accordance with Formulation Example 5 was diluted with water to 200 times (corresponding to a concentration of 500 ppm). Two milliliters of the dilution was impregnated in 13 g of an artificial feed for tobacco cutworms, and the feed was put in a polyethylene cup having a diameter of 11 cm. Ten 4th-instar larvae of tobacco cutworms were released into the cup, and examined for mortality 6 days later. The above experiment was carried out through two replicates.
# [3] = test system: carmine mites (Tetranychus telarius L.); test: Miticidal effect on carmine mites; set-up: key: -: Hardly any injury was observed.; +: Some injury was observed.; ++: The same injury as in the non-treated area was noted; conditions: 500 ppm active ingredient, spray plus soil, kidney beans, 8 days later
# Protocol: Female imagoes of carmine mites were caused to live at a rate of 10 per leaf on bineless kidney beans (in the primary leaf stage) in pots 7 days after sowing, and kept in a constant temperature chamber at 25° C. Six days later, a chemical obtained by diluting a wettable powder of each of compounds Nos. 4-6, 9-13, 15, 16, 21, 22, 25, 28-30, 33, 34, 36, 37 and 38 with water to an active ingredient concentration of 500 ppm was sprayed at a rate of 10 ml per pot, and at the same time, 2 ml of the chemical was poured into the soil. Eight days later, injuries to the plants by the mites were examined.
# The degree of injury is shown by -, + and ++ as follows: […]
structure (smiles),measurement,setting,value
c1cc[c]([Sn]([S]CCC[Si]23OCCN(CCO2)CCO3)([c]2ccccc2)[c]2ccccc2)cc1 [compound 1],Control index,Plasmopara viticola; 12.5 ppm active ingredient,97%
same,Control index,Plasmopara viticola; 50 ppm active ingredient,100%
same,Control index,Plasmopara viticola; 200 ppm active ingredient,100%
"c1cc[c]([Sn]([S]CC[Si]23OCCN(CCO2)CCO3)([c]2ccccc2)[c]2ccccc2)cc1 [compound 2, 1-(2-triphenylstannylthioethyl)silatrane]",Death rate,Culex pipiens,B (less than 90% to 10%)
same,Emergence inhibition rate,Culex pipiens,A (90% or higher)
same,"Fouled state, period of submerging 4 months",[1],.circle.
same,"Fouled state, period of submerging 8 months",[1],.circle.
same,"Fouled state, period of submerging 12 months",[1],.circle.
CC1CN2CC(C)O[Si](CC[S][Sn]([c]3ccccc3)([c]3ccccc3)[c]3ccccc3)(O1)OC(C)C2 (centres unmarked) [compound 3],Control index,Plasmopara viticola; 12.5 ppm active ingredient,98%
same,Control index,Plasmopara viticola; 50 ppm active ingredient,100%
same,Control index,Plasmopara viticola; 200 ppm active ingredient,100%
same,Death rate,[2],100%
"CC(C)([CH2][Sn]([CH2]C(C)(C)c1ccccc1)([CH2]C(C)(C)c1ccccc1)[S]CCC[Si]12OCCN(CCO1)CCO2)c1ccccc1 [compound 4, 1-(3-trineophylstannylthiopropyl)silatrane]",Degree of injury,[3],-
CC(C)([CH2][Sn]([CH2]C(C)(C)c1ccccc1)([CH2]C(C)(C)c1ccccc1)[S]CC[Si]12OCCN(CCO1)CCO2)c1ccccc1 [compound 5],Degree of injury,[3],-~+
CC1CN2CC(C)O[Si](CC[S][Sn]([CH2]C(C)(C)c3ccccc3)([CH2]C(C)(C)c3ccccc3)[CH2]C(C)(C)c3ccccc3)(O1)OC(C)C2 (centres unmarked) [compound 6],Degree of injury,[3],-~+
C1CC[CH]([Sn]([S]CC[Si]23OCCN(CCO2)CCO3)([CH]2CCCCC2)[CH]2CCCCC2)CC1 [compound 7],Death rate,Culex pipiens,C (less than 10%)
same,Emergence inhibition rate,Culex pipiens,A (90% or higher)
same,Death rate,[2],100%
CCC[CH2][Sn]([CH2]CCC)([CH2]CCC)[S]CC[Si]12OC(C)CN(CC(C)O1)CC(C)O2 (centres unmarked) [compound 8],Control index,Plasmopara viticola; 12.5 ppm active ingredient,94%
same,Control index,Plasmopara viticola; 50 ppm active ingredient,100%
same,Control index,Plasmopara viticola; 200 ppm active ingredient,100%
same,Death rate,Culex pipiens,B (less than 90% to 10%)
same,Emergence inhibition rate,Culex pipiens,A (90% or higher)
same,Death rate,[2],100%
same,"Fouled state, period of submerging 4 months",[1],.circle.
same,"Fouled state, period of submerging 8 months",[1],.circle.
same,"Fouled state, period of submerging 12 months",[1],.circle.
"CC1CN2CC(C)O[Si](CCC[S][Sn]([c]3ccccc3)([c]3ccccc3)[c]3ccccc3)(O1)OC(C)C2 (centres unmarked) [compound 9, 1-(3-triphenylstannylthiopropyl)-3,7,10-trimethylsilatrane]",Degree of injury,[3],-
same,Control index,Plasmopara viticola; 12.5 ppm active ingredient,98%
same,Control index,Plasmopara viticola; 50 ppm active ingredient,100%
same,Control index,Plasmopara viticola; 200 ppm active ingredient,100%
same,Death rate,[2],100%
CC1CN2CC(C)O[Si](CCC[S][Sn]([CH2]C(C)(C)c3ccccc3)([CH2]C(C)(C)c3ccccc3)[CH2]C(C)(C)c3ccccc3)(O1)OC(C)C2 (centres unmarked) [compound 10],Degree of injury,[3],-
CC1CN2CC(C)O[Si](CCC[S][Sn]([CH]3CCCCC3)([CH]3CCCCC3)[CH]3CCCCC3)(O1)OC(C)C2 (centres unmarked) [compound 11],Degree of injury,[3],-
same,Control index,Plasmopara viticola; 12.5 ppm active ingredient,96%
same,Control index,Plasmopara viticola; 50 ppm active ingredient,100%
same,Control index,Plasmopara viticola; 200 ppm active ingredient,100%
same,Death rate,Culex pipiens,B (less than 90% to 10%)
same,Emergence inhibition rate,Culex pipiens,A (90% or higher)
same,Death rate,[2],100%
C1CC[CH]([Sn]([S]CCC[Si]23OCCN(CCO2)CCO3)([CH]2CCCCC2)[CH]2CCCCC2)CC1 [compound 13],Degree of injury,[3],-
same,Death rate,Culex pipiens,A (90% or higher)
same,Emergence inhibition rate,Culex pipiens,A (90% or higher)
same,Death rate,[2],100%
CCC[CH2][Sn]([CH2]CCC)([CH2]CCC)[S]CCC[Si]12OCCN(CCO1)CCO2 [compound 14],Death rate,Culex pipiens,A (90% or higher)
same,Emergence inhibition rate,Culex pipiens,A (90% or higher)
same,Death rate,[2],100%
same,"Fouled state, period of submerging 4 months",[1],.circle.
same,"Fouled state, period of submerging 8 months",[1],.circle.
same,"Fouled state, period of submerging 12 months",[1],.circle.
CCCCCCC[CH2][Sn]([CH2]CCCCCCC)([CH2]CCCCCCC)[S]CCC[Si]12OCCN(CCO1)CCO2 [compound 15],Degree of injury,[3],-
CCCCCCC[CH2][Sn]([CH2]CCCCCCC)([CH2]CCCCCCC)[S]CCC[Si]12OC(C)CN(CC(C)O1)CC(C)O2 (centres unmarked) [compound 16],Degree of injury,[3],-
CCC1CN2CCO[Si](CCC[S][Sn]([c]3ccccc3)([c]3ccccc3)[c]3ccccc3)(O1)OC(CC)C2 (centres unmarked) [compound 20],"Fouled state, period of submerging 4 months",[1],.circle.
same,"Fouled state, period of submerging 8 months",[1],.circle.
same,"Fouled state, period of submerging 12 months",[1],Δ (Marine animals and plants adhered to less than 5% of the area of the coated film)
same,Fouled by,"[1]; antifouling paint, up to 12 months",Algae
CCC1CN2CCO[Si](CCC[S][Sn]([CH2]C(C)(C)c3ccccc3)([CH2]C(C)(C)c3ccccc3)[CH2]C(C)(C)c3ccccc3)(O1)OC(CC)C2 (centres unmarked) [compound 21],Degree of injury,[3],-
CCC1CN2CCO[Si](CCC[S][Sn]([CH]3CCCCC3)([CH]3CCCCC3)[CH]3CCCCC3)(O1)OC(CC)C2 (centres unmarked) [compound 22],Degree of injury,[3],-~+
CCC[CH2][Sn]([CH2]CCC)([CH2]CCC)[S]CCC[Si]12OCCN(CCO1)CC(CC)O2 (centres unmarked) [compound 25],Degree of injury,[3],-~+
CCC1CN2CCO[Si](CCC[S][Sn]([CH2]C(C)C)([CH2]C(C)C)[CH2]C(C)C)(O1)OC(CC)C2 (centres unmarked) [compound 28],Degree of injury,[3],-
CCCCCCC[CH2][Sn]([CH2]CCCCCCC)([CH2]CCCCCCC)[S]CCC[Si]12OCCN(CCO1)CCO2 [compound 29],Degree of injury,[3],-~+
CCCCCCC[CH2][Sn]([CH2]CCCCCCC)([CH2]CCCCCCC)[S]CCC[Si]12OC(C)CN(CC(C)O1)CC(C)O2 (centres unmarked) [compound 30],Degree of injury,[3],-
CCC1CN2CCO[Si](CCC[S][Sn]([c]3ccccc3)([c]3ccccc3)[c]3ccccc3)(OCC2)O1 (centres unmarked) [compound 31],Death rate,Culex pipiens,B (less than 90% to 10%)
same,Emergence inhibition rate,Culex pipiens,A (90% or higher)
same,Death rate,[2],100%
CCC1CN2CCO[Si](CCC[S][Sn]([CH2]C(C)(C)c3ccccc3)([CH2]C(C)(C)c3ccccc3)[CH2]C(C)(C)c3ccccc3)(OCC2)O1 (centres unmarked) [compound 33],Degree of injury,[3],-
CCC1CN2CC(C)O[Si](CCC[S][Sn]([CH2]C(C)(C)c3ccccc3)([CH2]C(C)(C)c3ccccc3)[CH2]C(C)(C)c3ccccc3)(OC(C)C2)O1 (centres unmarked) [compound 34],Degree of injury,[3],-
CCC1CN2CCO[Si](CCC[S][Sn]([CH]3CCCCC3)([CH]3CCCCC3)[CH]3CCCCC3)(OCC2)O1 (centres unmarked) [compound 36],Degree of injury,[3],-~+
CCC1CN2CC(C)O[Si](CCC[S][Sn]([CH]3CCCCC3)([CH]3CCCCC3)[CH]3CCCCC3)(OC(C)C2)O1 (centres unmarked) [compound 37],Degree of injury,[3],-
CC(C)(C)[CH2][Sn]([CH2]C(C)(C)C)([CH2]C(C)(C)C)[S]CC[Si]12OCCN(CCO1)CCO2 [compound 38],Degree of injury,[3],-
CCO[PH](=O)O [reference compound],Control index,Plasmopara viticola; 200 ppm active ingredient,68%
